From US11945779B2, “Inhibitors of cancer metastasis through inhibiting migration and invasion of cancer cells” (VSpharmtech, priority 2018, dated 2024)
pIC50: −log10 of the molar value.

Key:
[1] = test system: colon cancer cell line DLD-1; assay: Cytotoxicity / proliferation analysis (WST-1), DLD-1; format: cell-based, human; details: DLD-1, FIG. 8
Experimental: (§1) In order to verify cytotoxicity of CG-608 to CG-610 and CG-613 to CG-618 prepared in Examples 1 to 9, human colon cancer cell line DLD-1 cells (ATCC-CCL-221), pancreatic cancer cell line AsPc-1 cells (ATCC-CRL-1682), and normal cells MCF10A (ATCC-CRL-10317) were cultured in an RPMI medium containing 10% bovine fetal serum (FBS) while maintaining 37° C. and 5% CO2, and then the cells were detached using a 0.05% trypsin-EDTA. 4×10^3 cells calculated by a hematocytometer were inoculated in each well of a 96-well plate containing a 10% FBS containing medium and cultured in a 37° C. incubator containing 5% C2.
(§2) After 24 hours, the medium of each well was exchanged to a new medium containing a control group (0.1% DMSO) and CG-609 prepared in Example 1 or CG-618 prepared in Example 9 as a representative benproperine derivative at concentrations of 1 μM, 5 μM, and 10 μM. Thereafter, the cells were cultured in an incubator at 37° C. and 5% CO2 for 48 hours. Thereafter, […] of WST-1 (Roche) was added to each well and cultured for 2 hours, and then the absorbance was measured at 450 nm using an ELISA reader (Bio-Rad).

normal cells MCF10A [2] = assay: Cytotoxicity analysis (WST-1), normal cells MCF10A; format: cell-based; details: for Cytotoxicity in normal cells: 1 μM, 5 μM, 10 μM, 48 hours, WST-1, FIG. 2; for Growth of normal cells: FIG. 2
Experimental: as §1, §2

[3] = test system: pancreatic cancer cell line AsPc-1; assay: Trans-well cancer cell migration inhibition, AsPc-1; format: cell-based; details: Homo sapiens, ASPC1; for pIC50: Pancreatic cancer cell line AsPc-1, read-out: Concentration inhibiting migration of cancer cells by 50% (IC50 value)
Experimental: (§3) In order to analyze cancer cell migration inhibitory activity of CG-608, CG-609 or CG-618 prepared in Examples 1, 2, or 9, cell migration inhibitory activity was measured using a trans-well by targeting a colon cancer cell line DLD-1 (ATCC-CCL-221), pancreatic cancer cell lines AsPc-1 (ATCC-CCL-1682). CFPAC-1 (ATCC-CCL-1918). Panc-1 (ATCC-CCL-1469), and Miapaca-2 (ATCC-CCL-1420), a skin cancer cell line A375-P (ATCC-CCL-3224), lung cancer cell lines HCC-827 (ATCC-CCL-2868), A549 (ATCC-CCL-185), and NCI-H460 (ATCC-CCL-177), a prostate cancer cell line DU145 (ATCC-HTB-81), a stomach cancer cell line NuGC-3 (JCRB0822), and an ovarian cancer cell line SKOV-3 (ATCC-HTB-77).
(§4) First, the number of DLD-1 cells was measured using a hemocytometer in an RPMI medium without FBS. Thereafter, the trans-well was placed on a 24-well plate and 8×10^4 […] of cells were added. In an empty space with the trans-well on the well plate, […] of an RPM medium having 10% FBS containing CG-608, CG-609, or CG-618 was added and cultured in a CO2 incubator at 37° C. for 16 hours. After culture, […] of crystal violet (5 mg/mL of 20% […] was added to each well of the 24-well plate and the trans-well was dyed at room temperature for 30 minutes. The dyed trans-well was washed with PBS and non-migrated cells were wiped off with cotton swabs. The prepared sample was photographed with an inverted microscope mounted with a digital camera (TE 300, Nikon. Japan) and then the number of migrated cells was counted. The degree of inhibiting cell migration was calculated by Equation 1 for a group treated with the sample compared to a control group (DMSO).
(§5) In Equation 1, ‘the number of migrated cells treated with sample’ refers to the number of migrated cells measured by treating CG-608 or CG-618 of Example 1, and ‘the number of migrated cells of a control sample’ refers to the number of migrated cells measured by treating only 1% dimethyl sulfoxide (DMSO) instead of the compound.

normal cells MCF10A [4] = assay: Cell migration of normal cells MCF10A; format: cell-based; details: FIG. 2
[5] = test system: pancreatic cancer cell line AsPc-1; assay: Cytotoxicity / proliferation analysis (WST-1), AsPc-1; format: cell-based, human; details: AsPc-1, FIG. 8
Experimental: as §1, §2

[6] = test system: stomach cancer cell line NuGC-3; assay: Trans-well cancer cell migration inhibition, NuGC-3; format: cell-based; details: for pIC50: Homo sapiens, Gastric cancer cell NuGC-3, read-out: Concentration inhibiting migration of cancer cells by 50% (IC50 value)
Experimental: as §3, §4, §5

[7] = test system: prostate cancer cell line DU145; assay: Trans-well cancer cell migration inhibition, DU145; format: cell-based; details: for pIC50: Homo sapiens, DU-145, Prostate cancer cell DU145, read-out: Concentration inhibiting migration of cancer cells by 50% (IC50 value)
Experimental: as §3, §4, §5

[8] = test system: colon cancer cell line DLD-1; assay: Trans-well cancer cell migration inhibition, DLD-1; format: cell-based, human; details: for pIC50: Colon cancer cell DLD-1, trans-well, 16 hours, read-out: Concentration inhibiting migration of cancer cells by 50% (IC50 value)
Experimental: as §3, §4, §5

colon cancer cells DLD-1 = assay: Cancer cell invasion inhibition (Matrigel trans-well), DLD-1; format: cell-based; details: Homo sapiens, FIG. 8, read-out: Inhibition of cell invasion compared with DMSO-treated control
Experimental: In order to analyze cancer cell invasion inhibitory activity of CG-609 or CG-618 prepared in Example 1 or 9, cell invasion inhibitory activity using a trans-well was measured by targeting colon cancer cell line DLD-1 cells or pancreatic cancer cell line AsPc-1 cells.
Matrigel was diluted by 1/5 using an RPMI medium without FBS and then […] was put into each trans-well. The cells were coated in a […] for 2 hours. The number of DLD-1 cells was measured using a hemocytometer in an RPMI medium without FBS. Thereafter, the coated trans-well was placed on a 24-well plate and 8×10^4 […] of cells were added. In an empty space of the trans-well on the well plate, […] of an RPMI medium having 10% FBS containing (S)-(−)-benproperine was added and cultured in a CO2 incubator at 37° C. for 16 hours. After culture, […] of crystal violet (5 mg/mL of 20% MeOH) was added to each well of the 24-well plate and the trans-well was dyed at room temperature for 30 minutes. The dyed trans-well was washed with PBS and non-migrated cells were wiped off with cotton swabs. The prepared sample was photographed with an inverted microscope mounted with a digital camera (TE 300, Nikon, Japan), and then the number of migrated cells was counted. The degree of inhibiting cell migration was calculated for a group treated with the sample compared to a control group (DMSO).

[9] = Acute toxicity test for oral administration to rats; details: rat, in vivo, 1000 mg/kg; SD rats, single oral dose; read-out: Minimum dose (LD50) of oral administration
Experimental: Six-week-old specific pathogen free (SPF) SD-based rats were divided by two per group and then CG-608, CG-609, or CG-618 prepared in Example 1, 2, or 9 was dissolved in distilled water for injection and orally administered to rats once in a dose of 1000 mg/kg.

For `CC1CCCCN1C(C)COc1ccccc1Cc1ccccc1` (racemic) [CG-618, 1-(1-(2-benzylphenoxy)propan-2-yl)-2-methylpiperidine], the “Growth of cancer cells” value [1] was “did not affect the growth”, the “Cytotoxicity in normal cells” value (normal cells MCF10A [2]) was “did not exhibit cytotoxicity” and the “Growth of normal cells” value (normal cells MCF10A [2]) was “did not inhibit”. For the same compound, the pIC50 [3] was 6.15, the “Cell migration of normal cells” value (normal cells MCF10A [4]) was “did not inhibit” and the “Growth of cancer cells” value [5] was “did not affect the growth”. It also gave a pIC50 [6] of 5.10, a pIC50 [7] of 5.52 and a pIC50 ([8]; Homo sapiens) of 6.26. For the same compound, the inhibition at 0.5 µM (colon cancer cells DLD-1; DLD-1, 500 nM) was ≥ 50% and the LD50 [9] was ≥ 1000 mg/kg.

In the case of `C[C@H](COc1ccccc1Cc1ccccc1)N1CCCC[C@@H]1C` [CG-609, (S)-1-((R)-1-(2-benzylphenoxy)propan-2-yl)-2-methylpiperidine], the “Growth of cancer cells” value [1] was “did not affect the growth”, the “Cytotoxicity in normal cells” value (normal cells MCF10A [2]) was “did not exhibit cytotoxicity” and the “Growth of normal cells” value (normal cells MCF10A [2]) was “did not inhibit”. The inhibition at 1 µM ([3]; AsPc-1, 1 μM, FIG. 3) was ≥ 50%, the pIC50 [3] was 6.96 and the “Cell migration of normal cells” value (normal cells MCF10A [4]) was “did not inhibit”. The “Growth of cancer cells” value [5] was “did not affect the growth”, the pIC50 [6] was 5.30 and the “Inhibition of cell migration” value ([6]; NuGC-3, concentration not given, FIG. 3) was ≥ 50%. For the same compound, the “Inhibition of cell migration” value ([7]; DU-145, concentration not given, FIG. 3) was ≥ 50%, the pIC50 [7] was 5.70 and the “Cancer cell migration inhibitory activity relative to the benproperine derivative compound known in the related art” value ([8]; DLD-1) was “more than 20 times”. For the same compound, the pIC50 ([8]; Homo sapiens) was 7.22, the inhibition at 0.05 µM ([8]; Homo sapiens, DLD-1, 50 nM, FIG. 4A) was ≥ 50% and the inhibition at 1 µM ([8]; Homo sapiens, DLD-1, 1 μM, FIG. 3) was ≥ 50%. For the same compound, the inhibition at 0.1 µM (colon cancer cells DLD-1; DLD-1, 100 nM) was ≥ 50% and the LD50 [9] was ≥ 1000 mg/kg.
